This is an account of results in ChEMBL document CHEMBL4651402, “Screening of ~5500 FDA-approved drugs and clinical candidates for anti-SARS-CoV-2 activity” (2021).

Molecules are shown by their SMILES.

The test relates to SARS-CoV-2. The test can be described thus: microbe, parasite or virus in culture. The conditions noted are these: Severe acute respiratory syndrome coronavirus 2, Vero C1008, 48 h.

Take `CO[C@H]1C[C@H](O[C@H]2[C@H](C)[C@@H](O[C@@H]3O[C@H](C)C[C@H](N(C)C)[C@H]3OC(C)=O)[C@@H](C)C[C@@]3(CO3)C(=O)[C@H](C)[C@H](OC(C)=O)[C@@H](C)[C@@H](C)OC(=O)[C@@H]2C)O[C@@H](C)[C@@H]1OC(C)=O`: the IC50 is over 20 µM. In addition, where the note is “read-out: pIC50 (converted)”, the IC50 is over 20 µM.
Take `O=C(O)C1=C[C@@H](O)[C@@H](O)[C@H](O)C1` [SHIKIMIC ACID]: the IC50 was over 20 µM. The IC50 (read-out: pIC50 (converted)) is over 20 µM.
On to `NC(=O)Nc1ccc(S(=O)(=O)c2ccc(N)cc2)cc1` [AMIDAPSONE], for which the IC50 is over 20 µM. The IC50 (read-out: pIC50 (converted)) is over 20 µM.
On to `Cc1cc(N2CCN([C@@H]3CN[C@H](C(=O)N4CCSC4)C3)CC2)n(-c2ccccc2)n1` [TENELIGLIPTIN], for which the IC50 is over 20 µM. For the same compound, the IC50 (read-out: pIC50 (converted)) was over 20 µM.
Regarding `O=C(O)CCC(=O)c1ccc(-c2ccccc2)cc1` [FENBUFEN], the IC50 was over 20 µM. The IC50 (read-out: pIC50 (converted)) was over 20 µM.
As for `C[C@@H]1CCC[C@@H](C)N1CCCC(O)(c1ccccc1)c1ccccn1` (stereo partly drawn), the IC50 was over 20 µM. Moreover, the IC50 (read-out: pIC50 (converted)) is over 20 µM.
Consider `CCN(CC)CC1CCCCN1CC(=O)N1c2ccccc2C(=O)Nc2cccnc21` (stereo not drawn) [OTENZEPAD], for which the IC50 was over 20 µM. Further, the IC50 (read-out: pIC50 (converted)) was over 20 µM.
In the case of `Nc1ccc(C(=O)NCC(=O)O)cc1` [AMINOHIPPURIC ACID], the IC50 was over 20 µM. Where the note is “read-out: pIC50 (converted)”, the IC50 was over 20 µM.
`COCCNCc1ccc(-c2cc3nccc(Oc4ccc(NC(=S)NC(=O)Cc5ccc(F)cc5)cc4F)c3s2)nc1` [GLESATINIB]: the IC50 is over 20 µM. Moreover, the IC50 (read-out: pIC50 (converted)) is over 20 µM.
Turning to `COc1ccc2c(c1)C(=O)N(CCc1ccc(S(=O)(=O)NC(=O)NC3CCCCC3)cc1)C(=O)C2(C)C` [GLIQUIDONE], the IC50 was over 20 µM. Moreover, the IC50 (read-out: pIC50 (converted)) is over 20 µM.
In turn, `CCCCC1OC(=O)c2ccccc21` (stereo not drawn) [RAC-3-N-BUTYLPHTHALIDE] returned an IC50 of over 20 µM. Besides, for the setting “read-out: pIC50 (converted)”, the IC50 was over 20 µM.
The compound `O=C(O)CC[N+](=O)[O-]` yielded an IC50 of over 20 µM. Further, the IC50 (read-out: pIC50 (converted)) is over 20 µM.
In turn, `C[C@@H](O)CCCCn1c(=O)c2c(ncn2C)n(C)c1=O` [LISOFYLLINE] came in with an IC50 of over 20 µM. The IC50 (read-out: pIC50 (converted)) is over 20 µM.
Compound `C=CCOc1ccccc1OCC(O)CNC(C)C` (stereo not drawn) [OXPRENOLOL] showed an IC50 of over 20 µM. Further, the IC50 (read-out: pIC50 (converted)) is over 20 µM.
In turn, `Cc1nc2n(c(=O)c1CCN1CCC(C(=O)c3ccc(F)cc3)CC1)CCS2` [SETOPERONE] had an IC50 of over 20 µM. The IC50 (read-out: pIC50 (converted)) was over 20 µM.
The compound `CC1(C)NC(=O)N(c2ccc([N+](=O)[O-])c(C(F)(F)F)c2)C1=O` [NILUTAMIDE] displayed an IC50 of over 20 µM. Moreover, under “read-out: pIC50 (converted)”, the IC50 was over 20 µM.
The compound `C=CCNS(=O)(=O)c1cc(S(N)(=O)=O)c(Cl)cc1/N=C/C=C(\C)O` had an IC50 of over 20 µM. In addition, the IC50 (read-out: pIC50 (converted)) is over 20 µM.
`CC(=O)Nc1ccc(C(=O)NC(C)(C)C)cc1` [CP1-1189] gave an IC50 of over 20 µM. The IC50 (read-out: pIC50 (converted)) is over 20 µM.
Regarding `Nc1nc2c(ncn2COCCO)c(=O)[nH]1` [ACYCLOVIR], the IC50 is over 20 µM. Also, the IC50 (read-out: pIC50 (converted)) was over 20 µM.
Take `CC12CC3CC(C)(C1)CC(N)(C3)C2` [MEMANTINE]: the IC50 was over 20 µM. Further, for the setting “read-out: pIC50 (converted)”, the IC50 was over 20 µM.
`Cc1nc(C2CCCCC2)c(-c2ccc(S(N)(=O)=O)c(F)c2)o1` [TILMACOXIB] came in with an IC50 of over 20 µM. For the setting “read-out: pIC50 (converted)”, the IC50 is over 20 µM.
Regarding `CC(=O)[C@H]1CC[C@H]2[C@@H]3CC[C@H]4C[C@H](O)CC[C@]4(C)[C@H]3C(=O)C[C@]12C` [ALFAXALONE], the IC50 is over 20 µM. The IC50 (read-out: pIC50 (converted)) is over 20 µM.
With `C[C@]12CC[C@H](O)CC1CC[C@@H]1[C@@H]2CC[C@]2(C)C(=O)CC[C@@H]12` (stereo partly drawn), the IC50 is over 20 µM. For the same compound, the IC50 (read-out: pIC50 (converted)) was over 20 µM.
With `CCC12CCN(CC3(O)CC3)C(Cc3ccc(O)cc31)C2(C)C` (stereo not drawn) [BREMAZOCINE], the IC50 is over 20 µM. Where the note is “read-out: pIC50 (converted)”, the IC50 is over 20 µM.
